One may read the IC50 as the midpoint of a concentration-inhibition curve. The IC90 is the concentration needed for an effect of 90%. A higher IC90 goes with weaker potency.

This passage reports IC50 and IC90 results from PubChem BioAssay AID434987 (Southern Research Specialized Biocontainment Screening …, 2010).

The source made the active and inactive calls. The rule behind the calls is not given here.

This assay concerns M. tuberculosis H37Rv growth inhibition with meropenem. The assay is described as follows: dose response, H37Rv, with and without meropenem (AID 434987).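 Note: growth over 7 days at 37 °C before Alamar Blue read on day 9.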
Setting [1] is: M. tuberculosis H37Rv growth inhibition, measured here: IC50 without meropenem.
Setting [2] is: M. tuberculosis H37Rv growth inhibition, measured here: IC90 without meropenem.
Setting [3] is: measured here: IC90 with meropenem.

On to `O=C(N/N=C/c1ccc(OC(=O)c2ccc3c(c2)OCO3)cc1)c1cncc(Br)c1`, for which the IC50 was 5.48 µM. Also, under setting [1], the IC50 stood at 45.7 µM. Under setting [2], the IC90 was above 100 µM. In addition, the IC90 under setting [3] was found to be 48.3 µM.
As for `Cc1c(C(=O)Nc2cccnc2)oc2ccc(Br)cc12`, the IC50 is > 100 µM (inactive). The IC50 under setting [1] is above 100 µM. Besides, the 90% effect concentration (IC90) under setting [2] was above 100 µM. The compound further displayed a 90% effect concentration (IC90) under setting [3] above 100 µM.
In the case of `O=C(CCS(=O)(=O)c1ccc(F)cc1)Nc1nnc(-c2cccs2)o1`, the half-inhibitory concentration (IC50) was 2.94 µM. In addition, the IC50 under setting [1] stood at 47.2 µM. Moreover, under setting [2], the 90% effect concentration (IC90) is above 100 µM. Under setting [3], the IC90 was above 100 µM.
Take `Cc1ccc(C(C)C)c(OCc2ccc(C(=O)N/N=C/c3ccc(C(=O)O)cc3)cc2)c1`: the IC50 was 13.4 µM. For the same compound, under setting [1], the IC50 was determined as 43.3 µM. For the same compound, the IC90 under setting [2] was determined as 84.9 µM. Also, the concentration for an effect of 90% (IC90) under setting [3] turned out to be 49.5 µM.
Regarding `O=c1c2c3n(c(=S)nc2[nH]n1-c1ccccc1)CCCCC3`, the IC50 is 12.4 µM (inactive). This compound gave an IC50 under setting [1] of 27.1 µM. In addition, the concentration for an effect of 90% (IC90) under setting [2] was above 100 µM. Under setting [3], the 90% effect concentration (IC90) was determined as 13.3 µM.
The like results for `COc1ccc(Cl)cc1NC(=O)CN(C)C(=O)c1ccc(N2CCCCCC2)c([N+](=O)[O-])c1` were, in that order, > 100 µM (inactive), above 100 µM, above 100 µM and above 100 µM.
The like results for `C/C(=N/NC(=O)c1cccs1)c1c(C)[nH]n(-c2nc3ccccc3s2)c1=O` were, in that order, 1.44 µM (inactive), 1.52 µM, 1.69 µM and 1.58 µM.
As to `COC(=O)c1ccc(/C=N\NC(=O)c2ccc(C)cc2Cl)cc1`, the IC50 is > 100 µM (inactive). The concentration for half-maximal inhibition (IC50) under setting [1] was above 100 µM. The compound further yielded an IC90 under setting [2] above 100 µM. The IC90 under setting [3] is above 100 µM.
In turn, `Cc1nc(/N=C(\N)NC(=O)c2ccccc2)nc2ccccc12` came in with an IC50 under setting [1] above 100 µM. The concentration for an effect of 90% (IC90) under setting [2] is above 100 µM and the IC90 under setting [3] was above 25 µM.
`CC1CC2(CCCCC2)Nc2ccc3ccccc3c21` (stereo unspecified): the IC50 was 49.1 µM (inactive). The IC50 under setting [1] came out at 86.1 µM. In addition, under setting [2], the IC90 was found to be 96 µM. Besides, the 90% effect concentration (IC90) under setting [3] is above 100 µM.
The like results for `O=C1/C(=C/C=C/c2ccco2)SC(=S)N1c1ccc(O)cc1` were, in that order, > 100 µM (inactive), above 100 µM, above 100 µM and above 100 µM.
The like results for `COc1ccccc1NC(=O)COc1ccc(CO)cc1Cl` were, in that order, > 100 µM (inactive), above 100 µM, above 100 µM and above 100 µM.
As to `C=C1C(=O)O[C@@H]2[C@H]1[C@@H](OC(=O)/C(C)=C/C)C/C(C)=C\C(=O)/C=C(\C)[C@@H]2O`, the IC50 was 1.24 µM. Under setting [1], this compound registered an IC50 of 18.6 µM. Under setting [2], the IC90 was 29 µM. The compound further yielded a 90% effect concentration (IC90) under setting [3] of 25.2 µM.
The like results for `O=c1oc(CCCO)cc2ccc(C#Cc3ccsc3)cc12` were, in that order, > 100 µM (inactive), above 100 µM, above 100 µM and above 100 µM.
Taken in the same sequence, the figures for `Cc1ccc(S(=O)(=O)N[C@H](C(=O)OCn2nnc3ccccc3c2=O)C(C)C)cc1` were > 100 µM (inactive), above 100 µM, above 100 µM and above 100 µM.
Taken in the same sequence, the figures for `O=C(Nc1nc(-c2ccc(F)c(F)c2)cs1)c1cnccn1` were 14.6 µM, above 100 µM, above 100 µM and above 100 µM.
Consider `CC/C(=N\NC(=S)NC(C)C)c1ccc(OC)c(OC)c1`, for which the IC50 is 12.9 µM (inactive). Under setting [1], this compound displayed an IC50 of 20.2 µM. Besides, the concentration for an effect of 90% (IC90) under setting [2] worked out at 24.7 µM. Besides, under setting [3], the IC90 turned out to be 15.5 µM.
Take `COc1ccc(NC(=O)CCc2ccccc2)cc1NC(=O)c1ccco1`: the IC50 was > 100 µM (inactive). The same compound came in with an IC50 under setting [1] above 100 µM. Further, the IC90 under setting [2] was above 100 µM. The compound further registered an IC90 under setting [3] above 100 µM.
As for `CCOC(=O)CNC(=O)c1cccnc1Oc1ccc(Cl)cc1`, the IC50 was 11.4 µM. In addition, the IC50 under setting [1] is 36.7 µM. Besides, under setting [2], the 90% effect concentration (IC90) is above 100 µM. In addition, the 90% effect concentration (IC90) under setting [3] was above 100 µM.
Turning to `CCCCCn1c(=O)c(C(=O)Nc2cnccn2)c(O)c2ccccc21`, the IC50 is 10.8 µM (inactive). The same compound gave an IC50 under setting [1] of 13.7 µM. The IC90 under setting [2] turned out to be 16.4 µM. The compound also displayed an IC90 under setting [3] of 13.8 µM.
The like results for `Cc1cc(Br)cc2c(C(=O)NCC3CCCO3)cc(-c3ccccc3)nc12` (stereo unspecified) were, in that order, 95.6 µM (inactive), above 100 µM, above 100 µM and above 100 µM.
Taken in the same sequence, the figures for `Cc1[nH]n(-c2ccccc2)c(=O)c1/C=N/NC(=O)c1ccoc1C` were 0.655 µM, above 100 µM, above 100 µM and 3.01 µM.
Taken in the same sequence, the figures for `Cc1cccc(C)c1OCC(=O)NNC(=O)CNC(=O)c1ccc(OC(F)F)cc1` were 88.3 µM (inactive), above 100 µM, above 100 µM and 98.1 µM.
